According to PubChem BioAssay AID1919003 (Molecular Pharmacology Branch, DTP, NCI, 2023):
“And” between values parts separate entries of the source, which are not always exact repeats. Equal values may be shown once.

Tested on: 786-0 complex spheroids with HUVEC/MSC, growth % test/control
Experiment: Anticancer human tumor 786-0 cell line growth inhibition [AhR];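 note: compound exposure lasted seven days before the read-out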
Conditions: for viability, T/C: stronger effect = lower value
In short: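 Agents were dosed in half-log steps down from roughly clinical Cmax, or from 10 microM where Cmax was unknown, alone and with AhR antagonists. Read-out: percent test/control growth of tumor spheroids containing HUVEC and MSC stromal cells.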

[1] = curve of first compound, second compound 0.1 µM
[2] = curve of first compound, second compound 0.316 µM
[3] = curve of first compound, second compound 1 µM
[4] = curve of first compound, second compound 3.16 µM
[5] = curve of first compound, second compound 10 µM
[6] = second compound 0.1 µM, first compound 0.0316 µM
[7] = second compound 0.1 µM, first compound 0.1 µM
[8] = second compound 0.1 µM, first compound 0.316 µM
[9] = second compound 0.1 µM, first compound 1 µM
[10] = second compound 0.316 µM, first compound 0.0316 µM
[11] = second compound 0.316 µM, first compound 0.1 µM
[12] = second compound 0.316 µM, first compound 0.316 µM
[13] = second compound 0.316 µM, first compound 1 µM
[14] = second compound 1 µM, first compound 0.0316 µM
[15] = second compound 1 µM, first compound 0.1 µM
[16] = second compound 1 µM, first compound 0.316 µM
[17] = second compound 1 µM, first compound 1 µM
[18] = second compound 3.16 µM, first compound 0.0316 µM
[19] = second compound 3.16 µM, first compound 0.1 µM
[20] = second compound 3.16 µM, first compound 0.316 µM
[21] = second compound 3.16 µM, first compound 1 µM
[22] = second compound 10 µM, first compound 0.0316 µM
[23] = second compound 10 µM, first compound 0.1 µM
[24] = second compound 10 µM, first compound 0.316 µM
[25] = second compound 10 µM, first compound 1 µM
[26] = second compound 0.1 µM, first compound 3.16 µM
[27] = second compound 0.1 µM, first compound 10 µM
[28] = second compound 0.316 µM, first compound 3.16 µM
[29] = second compound 0.316 µM, first compound 10 µM
[30] = second compound 1 µM, first compound 3.16 µM
[31] = second compound 1 µM, first compound 10 µM
[32] = second compound 3.16 µM, first compound 3.16 µM
[33] = second compound 3.16 µM, first compound 10 µM
[34] = second compound 10 µM, first compound 3.16 µM
[35] = second compound 10 µM, first compound 10 µM

SMILES: CC1COCCN1c1cc(-c2ccnn2C)c2ccnc(-c3ccn[nH]3)c2n1 (stereo unspecified) + Cc1cncc(-c2nc(NCCc3c[nH]c4ccccc34)c3ncn(C(C)C)c3n2)c1
- IC50 [1]: 192 nM
- IC50 [2]: 192 nM
- IC50 [3]: 150 nM
- IC50 [4]: 49.8 nM
- IC50 [5]: < 3.16 nM
- viability, T/C (second compound 0.1 µM, first compound 0.00316 µM): 106%
- viability, T/C (second compound 0.1 µM, first compound 0.01 µM): 114%
- viability, T/C [6]: 108%
- viability, T/C [7]: 89.9%
- viability, T/C [8]: 19.7%
- viability, T/C [9]: 6.85%
- viability, T/C (second compound 0.316 µM, first compound 0.00316 µM): 119%
- viability, T/C (second compound 0.316 µM, first compound 0.01 µM): 118%
- viability, T/C [10]: 116%
- viability, T/C [11]: 88.4%
- viability, T/C [12]: 20.5%
- viability, T/C [13]: 7.37%
- viability, T/C (second compound 1 µM, first compound 0.00316 µM): 106%
- viability, T/C (second compound 1 µM, first compound 0.01 µM): 104%
- viability, T/C [14]: 100%
- viability, T/C [15]: 69%
- viability, T/C [16]: 15%
- viability, T/C [17]: 5.51%
- viability, T/C (second compound 3.16 µM, first compound 0.00316 µM): 74.9%
- viability, T/C (second compound 3.16 µM, first compound 0.01 µM): 74.9%
- viability, T/C [18]: 65%
- viability, T/C [19]: 26.9%
- viability, T/C [20]: 4.19%
- viability, T/C [21]: 2.86%
- viability, T/C (second compound 10 µM, first compound 0.00316 µM): 8.14%
- viability, T/C (second compound 10 µM, first compound 0.01 µM): 10.1%
- viability, T/C [22]: 7.76%
- viability, T/C [23]: 1.45%
- viability, T/C [24]: 0.29%
- viability, T/C [25]: 0.46%

SMILES: NS(=O)(=O)OCC1CC(n2ccc3c(NC4CCc5ccccc54)ncnc32)CC1O (stereo unspecified) + Cc1cncc(-c2nc(NCCc3c[nH]c4ccccc34)c3ncn(C(C)C)c3n2)c1
- IC50 [1]: 639 nM
- IC50 [2]: 649 nM
- IC50 [3]: 581 nM
- IC50 [4]: 306 nM
- IC50 [5]: < 31.6 nM
- viability, T/C [6]: 96.8%
- viability, T/C [7]: 84.5%
- viability, T/C [8]: 74.8%
- viability, T/C [9]: 35%
- viability, T/C [26]: 10.5%
- viability, T/C [27]: 5.21%
- viability, T/C [10]: 100%
- viability, T/C [11]: 82.9%
- viability, T/C [12]: 75.8%
- viability, T/C [13]: 36%
- viability, T/C [28]: 8.3%
- viability, T/C [29]: 4.21%
- viability, T/C [14]: 103%
- viability, T/C [15]: 83.6%
- viability, T/C [16]: 74.2%
- viability, T/C [17]: 30.7%
- viability, T/C [30]: 8.16%
- viability, T/C [31]: 5.53%
- viability, T/C [18]: 71.9%
- viability, T/C [19]: 66%
- viability, T/C [20]: 50.1%
- viability, T/C [21]: 16.5%
- viability, T/C [32]: 3.65%
- viability, T/C [33]: 2.28%
- viability, T/C [22]: 6.13%
- viability, T/C [23]: 6.79%
- viability, T/C [24]: 1.4%
- viability, T/C [25]: 1.01%
- viability, T/C [34]: 0.49%
- viability, T/C [35]: 0.45%

SMILES: Nc1ccn(C2OC(CO)C(O)C2(F)F)c(=O)n1 (stereo unspecified) + Cc1ccccc1N=Nc1ccc(NC(=O)c2ccnn2C)c(C)c1
- IC50 [1]: < 31.6 nM
- IC50 [2]: < 31.6 nM
- IC50 [3]: < 31.6 nM
- IC50 [4]: < 31.6 nM
- IC50 [5]: < 31.6 nM
- viability, T/C [6]: 8.08%
- viability, T/C [7]: 6.67%
- viability, T/C [8]: 7.73%
- viability, T/C [9]: 5.06%
- viability, T/C [26]: 7.17%
- viability, T/C [27]: 6.66%
- viability, T/C [10]: 7.8%
- viability, T/C [11]: 6.77%
- viability, T/C [12]: 5.95%
- viability, T/C [13]: 8.69%
- viability, T/C [28]: 7.54%
- viability, T/C [29]: 7.11%
- viability, T/C [14]: 6.79%
- viability, T/C [15]: 6.35%
- viability, T/C [16]: 7.35%
- viability, T/C [17]: 5.82%
- viability, T/C [30]: 7.07%
- viability, T/C [31]: 6.7%
- viability, T/C [18]: 7.91%
- viability, T/C [19]: 5.76%
- viability, T/C [20]: 6.46%
- viability, T/C [21]: 4.78%
- viability, T/C [32]: 6.9%
- viability, T/C [33]: 7.29%
- viability, T/C [22]: 9.54%
- viability, T/C [23]: 8.5%
- viability, T/C [24]: 7.09%
- viability, T/C [25]: 6.47%
- viability, T/C [34]: 5.53%
- viability, T/C [35]: 6.11%

SMILES: CC(C)CC(NC(=O)C(Cc1ccccc1)NC(=O)c1cnccn1)B(O)O (stereo unspecified)
- viability, T/C (compound 0.000949 µM): 100% and 102% and 98.1%
- viability, T/C (compound 0.003 µM): 105% and 104% and 116%
- viability, T/C (compound 0.00949 µM): 63.4% and 99.9% and 35.7%
- viability, T/C (compound 0.03 µM): 3.86% and 13.5% and 0.66%
- viability, T/C (compound 0.0949 µM): 0.45% and 1.34% and 0.4%
- viability, T/C (compound 0.3 µM): 1.25% and 0.84% and 0.27%
- IC50 (curve of compound): 12.3 nM and 18.4 nM and 7.53 nM

SMILES: CCN(c1cc(-c2ccc(CN3CCOCC3)cc2)cc(C(=O)NCc2c(C)cc(C)[nH]c2=O)c1C)C1CCOCC1 + Cc1cncc(-c2nc(NCCc3c[nH]c4ccccc34)c3ncn(C(C)C)c3n2)c1
- IC50 [1]: > 3000 nM
- IC50 [2]: > 3000 nM
- IC50 [3]: > 3000 nM
- IC50 [4]: > 3000 nM
- IC50 [5]: < 9.49 nM
- viability, T/C (second compound 0.1 µM, first compound 0.00949 µM): 121%
- viability, T/C (second compound 0.1 µM, first compound 0.03 µM): 119%
- viability, T/C (second compound 0.1 µM, first compound 0.0949 µM): 112%
- viability, T/C (second compound 0.1 µM, first compound 0.3 µM): 121%
- viability, T/C (second compound 0.1 µM, first compound 0.949 µM): 120%
- viability, T/C (second compound 0.1 µM, first compound 3 µM): 131%
- viability, T/C (second compound 0.316 µM, first compound 0.00949 µM): 125%
- viability, T/C (second compound 0.316 µM, first compound 0.03 µM): 120%
- viability, T/C (second compound 0.316 µM, first compound 0.0949 µM): 128%
- viability, T/C (second compound 0.316 µM, first compound 0.3 µM): 131%
- viability, T/C (second compound 0.316 µM, first compound 0.949 µM): 131%
- viability, T/C (second compound 0.316 µM, first compound 3 µM): 138%
- viability, T/C (second compound 1 µM, first compound 0.00949 µM): 113%
- viability, T/C (second compound 1 µM, first compound 0.03 µM): 118%
- viability, T/C (second compound 1 µM, first compound 0.0949 µM): 113%
- viability, T/C (second compound 1 µM, first compound 0.3 µM): 114%
- viability, T/C (second compound 1 µM, first compound 0.949 µM): 126%
- viability, T/C (second compound 1 µM, first compound 3 µM): 127%
- viability, T/C (second compound 3.16 µM, first compound 0.00949 µM): 75.8%
- viability, T/C (second compound 3.16 µM, first compound 0.03 µM): 73.8%
- viability, T/C (second compound 3.16 µM, first compound 0.0949 µM): 79.2%
- viability, T/C (second compound 3.16 µM, first compound 0.3 µM): 73.5%
- viability, T/C (second compound 3.16 µM, first compound 0.949 µM): 74.4%
- viability, T/C (second compound 3.16 µM, first compound 3 µM): 76.9%
- viability, T/C (second compound 10 µM, first compound 0.00949 µM): 16%
- viability, T/C (second compound 10 µM, first compound 0.03 µM): 14.8%
- viability, T/C (second compound 10 µM, first compound 0.0949 µM): 23.9%
- viability, T/C (second compound 10 µM, first compound 0.3 µM): 14.8%
- viability, T/C (second compound 10 µM, first compound 0.949 µM): 4.25%
- viability, T/C (second compound 10 µM, first compound 3 µM): 0.53%

SMILES: Nc1ccn(C2OC(CO)C(O)C2(F)F)c(=O)n1 (stereo unspecified)
- viability, T/C (compound 0.0316 µM): 5.98% and 8.17% and 4.44%
- viability, T/C (compound 0.1 µM): 6.03% and 7.13% and 4.49%
- viability, T/C (compound 0.316 µM): 4.27% and 6.35% and 5.28%
- viability, T/C (compound 1 µM): 4.72% and 8.77% and 4.12%
- viability, T/C (compound 3.16 µM): 4.82% and 7.86% and 5.09%
- viability, T/C (compound 10 µM): 5.31% and 7.65% and 6.29%
- IC50 (curve of compound): < 31.6 nM

SMILES: CC[C@@]1(O)C(=O)OCc2c1cc1n(c2=O)Cc2cc3c(CN(C)C)c(O)ccc3nc2-1
- viability, T/C (compound 0.000316 µM): 105% and 100% and 103%
- viability, T/C (compound 0.001 µM): 97.3% and 102% and 104%
- viability, T/C (compound 0.00316 µM): 96.1% and 107% and 98%
- viability, T/C (compound 0.01 µM): 97.8% and 106% and 109%
- viability, T/C (compound 0.0316 µM): 64.5% and 73.7% and 85.6%
- viability, T/C (compound 0.1 µM): 16.4% and 21.4% and 16.1%
- IC50 (curve of compound): 44.7 nM and 53.3 nM and 57 nM
